Experimental findings from patent US10548313B2, “Acetyl-CoA carboxylase modulators” (Monsanto Technology LLC, priority 2013, dated 2020) are described below.

Experiment [1] concerns the target Ustilago maydis acetyl CoA carboxylase (ACCase) (Mycosarcoma maydis (Ustilago maydis), UniProt A0A0D1DYD5). Nature of the experiment: ACCase enzymatic assay (coupled PK/LDH, NADH OD340). The class given is biochemical. As for the experimental part: Ustilago maydis acetyl CoA carboxylase (ACCase) was cloned, expressed, and purified as described (Weatherly et al, Biochem. J., 2004) and the test compounds were tested in a 96-well plate format. Primary in vitro screening consisted of obtaining dose response data at 100, 33, 10, and 1 μM inhibitor. Actives in the primary screen were re-tested to establish IC50 values.
Direct detection of the conversion of acetyl CoA to malonyl CoA by ACCase was not feasible, but during this process ATP is converted to ADP which allowed for detection through a standard reaction coupling with ADP recycling to the oxidation of NADH. Thus, ACCase activity was measured via kinetic OD340 measurements of the conversion of NADH to NAD in a coupled reaction involving the conversion of phosphoenolpyruvate (PEP) to lactate.
The complete 200 ul reaction mixture contained 52.5 mM HEPES (pH8), 2.625 mM MgCl2, 1 mM ATP, 0.525 mM DTT, 11 mM NaHCO3, 1% DMSO with or without inhibitor, 1× pyruvate kinase/lactate dehydrogenase (PK/LDH), 0.3 mM NADH, 0.5 mM PEP, and 5 μg ACCase. The reactions were incubated at 30° C. for 10 minutes and then initiated by the addition of 0.33 mM acetyl CoA. The initiated reactions were read immediately via plate reader at OD340 and kinetic readings were acquired every 20 s for 15 minutes while keeping the temperature at 30° C.
A slope of the kinetic curve was determined by using the 2 to 7 minute data which was then calculated as percent inhibition relative to the no inhibitor control.
The primary screens were conducted in duplicate and the IC50's conducted in triplicate. Averages were reported along with standard deviation calculation to generate error bars.
Each plate contained its own controls and consisted of a DMSO only control, 5-fold titration series of soraphen from 2 μM to 3.2 nM, and an ADP coupled reaction control.

In another experiment the test system is Saccharomyces cerevisiae. Nature of the experiment: Yeast growth inhibition assay. The class given is cell-based. The settings on record: for inhibition at 3.7 µM: read-out: S. cerevisiae % growth inhibition at 48 hours, 3.7 μM; for inhibition at 11.1 µM: read-out: S. cerevisiae % growth inhibition at 48 hours, 11.1 μM; for inhibition at 33.3 µM: read-out: S. cerevisiae % growth inhibition at 48 hours, 33.3 μM; for inhibition at 100 µM: read-out: S. cerevisiae % growth inhibition at 48 hours, 100 μM. How it is done: Yeast cells (Ade2 strain) were grown in liquid YPD (1% yeast extract, 2% peptone, 2% dextrose) for 16 hours at 30° C. from previously sub-cultured plates of Saccharomyces cerevisiae. The OD600 of the overnight culture was checked via spectrophotometer and diluted to a concentration of 2×10^4 cells/ml.
Chemistry stocks were dissolved in DMSO to a concentration of 10 mM. Chemistry stocks were further diluted in a 96-well stock plate to obtain final concentrations of 100, 33, 10 and 1 μM in 1% DMSO. The final concentrations of the soraphen positive controls were 400, 40, and 3.2 nM. The negative controls on each plate included a background subtraction control containing yeast and 1% DMSO (without chemistry) and a second contamination control containing YPD (with no yeast) and 1% DMSO (without chemistry).
98 μl liquid YPD was added to 2 μl diluted stock of DMSO per well and mixed thoroughly. After mixing, 100 μl of the diluted yeast solution was added to bring the final yeast concentration to 1×10^4 cells/ml or 2000 cells per well. An initial spectrophotometric reading at OD600 was conducted on the entire plate and served as the 0 hour time point used to subtract any background. […] […] […] All experiments were conducted in triplicate. Averages were reported along with standard deviation calculation to generate error bars. Each plate contained its own controls and consisted of inoculated+DMSO, non-inoculated+DMSO, and a titration series of soraphen at 400, 40, and 3.2 nM.

Experiment [2] has as its system Collectotrichum graminicola. Nature of the experiment: Fungal growth inhibition assay, Collectotrichum graminicola. The settings on record: Colletotrichum graminicola, 48 hours, read-out: C. graminicola % growth inhibition at 48 hours. The class given is cell-based. How it is done:
(§1) Spores were isolated from previously sub-cultured plates of Botrytis cinerea, Phytophthora capsici, Fusarium moniliforme, Fusarium viguliforme, Collectotrichum graminicola, and Diplodia maydis. All spores were filtered and collected in a sterile glass bowl to isolate the spores from the mycelia. The isolation and sub-culture plate condition for each pathogen is described below.
Spore isolation for C. graminicola: A 1-2 week old oatmeal agar (pre-mix) plate was removed from 26° C. incubator with a light/dark 12 hour cycle and the mycelia were treated with 10-15 ml of filter sterilized distilled water. The mycelia were scraped to re-suspend the spores. The spores were then collected in a sterile filter bowl containing a piece of sterile cheesecloth and poured into a conical tube.
(§2) After spore isolation, pathogen spores were counted on a hemocytometer to calculate the spores/ml. In 17% V8 liquid media containing 3 g/L CaCO3, isolated spores were diluted to individual concentrations based on the growth curves at 48 hours of each pathogen. The spore concentrations for each pathogen were as follows: B. cinerea—10,000 sp/ml; P. capsici—300 sp/ml; F. monliforme—500 sp/ml; F. virguliforme—500 sp/ml; C. graminicola—3,000 sp/ml; and D. maydis—3,000 sp/ml.
(§3) Chemistry stocks were dissolved in DMSO at 2.5 mg/ml. Chemistry was diluted in a 96-well stock plate in five-fold dilutions to obtain a final concentration of 50, 10, and 2 ppm in vitro. The final concentration of the positive control after the five-fold dilutions was as follows: soraphen—0.5, 0.1, and 0.02 ppm. Negative controls on each plate included 2% DMSO, water containing spores and media, and a blank for background subtraction.
(§4) In a 96-well plate the spore solution, chemistries, and controls were combined to make the final solution concentrations mentioned above. Upon addition of the chemistry, an OD600 reading was done to assess chemical precipitation. The 96-well plates were incubated in plastic tubs containing wet paper towels under the following conditions, 25° C. in the dark for P. capsici and B. cinerea or 26° C. with light/dark cycle for C. graminicola, D. maydis, F. virguliforme, F. monliforme. Plate readings were repeated at 24 and 48 hrs. Visual ratings were performed at 24 and 48 hrs to check for precipitation and confirm efficacy. Visual and OD600 ratings of the chemistry at 48 hours were compared to the 2% DMSO control to determine the percent of pathogen growth inhibition.

The next experiment concerns Diplodia maydis. Nature of the experiment: Fungal growth inhibition assay, Diplodia maydis. Type of experiment: cell-based. As to conditions: 48 hours, read-out: D. maydis % growth inhibition at 48 hours. As for the experimental part:
as §1
Spore isolation for D. maydis: A 3-4 week old PDA (pre-mix) plate was removed from 26° C. incubator with a light/dark 12 hour cycle and the mycelia were treated with 6-7 ml of sterile distilled water, scraped into a sterile petri dish, and smashed to open the pycnidia. The spores were then collected in a sterile filter bowl containing a fluted piece of filter paper and poured into a conical tube.
as §2, §3, §4

The test system of the next experiment is Phytophthora capsici. Nature of the experiment: Fungal growth inhibition assay, Phytophthora capsici. The class given is cell-based. As to conditions: 48 hours, read-out: P. capsici % growth inhibition at 48 hours.
From the text: as §1
Spore isolation for P. capsici: Three to five days prior to the assay a 2-3 week old V8 (17%)+CaCO3 (3 g/L)+20 g agar plate was removed from a dark 25° C. incubator and cut up into small chunks. One plate was separated into two deep well plates and rinsed with sterile distilled water three times. The cut up pieces were incubated under light in a sterile filter hood with 25 ml of sterile distilled water. On the day of the assay the water was removed and 5-7 ml of fresh sterile distilled water was added. One plate was incubated at 4° C. for 45-60 minutes and then placed at room temperature for about 45-60 minutes. The spores were collected in a sterile filter bowl containing a fluted piece of filter paper. The spores were vortexed in a conical tube for 30-60 seconds to remove the flagella of the zoospores after isolation.
as §2, §3, §4

The mark [3] stands for this setting: Table 1A, values marked a are a result of two or more experiments, read-out: ACCase Inhibitory Activity IC50.

Like-named read-outs stand apart in the source and are kept apart here.

Sequence of Ustilago maydis acetyl CoA carboxylase (ACCase) (A0A0D1DYD5 1-2185): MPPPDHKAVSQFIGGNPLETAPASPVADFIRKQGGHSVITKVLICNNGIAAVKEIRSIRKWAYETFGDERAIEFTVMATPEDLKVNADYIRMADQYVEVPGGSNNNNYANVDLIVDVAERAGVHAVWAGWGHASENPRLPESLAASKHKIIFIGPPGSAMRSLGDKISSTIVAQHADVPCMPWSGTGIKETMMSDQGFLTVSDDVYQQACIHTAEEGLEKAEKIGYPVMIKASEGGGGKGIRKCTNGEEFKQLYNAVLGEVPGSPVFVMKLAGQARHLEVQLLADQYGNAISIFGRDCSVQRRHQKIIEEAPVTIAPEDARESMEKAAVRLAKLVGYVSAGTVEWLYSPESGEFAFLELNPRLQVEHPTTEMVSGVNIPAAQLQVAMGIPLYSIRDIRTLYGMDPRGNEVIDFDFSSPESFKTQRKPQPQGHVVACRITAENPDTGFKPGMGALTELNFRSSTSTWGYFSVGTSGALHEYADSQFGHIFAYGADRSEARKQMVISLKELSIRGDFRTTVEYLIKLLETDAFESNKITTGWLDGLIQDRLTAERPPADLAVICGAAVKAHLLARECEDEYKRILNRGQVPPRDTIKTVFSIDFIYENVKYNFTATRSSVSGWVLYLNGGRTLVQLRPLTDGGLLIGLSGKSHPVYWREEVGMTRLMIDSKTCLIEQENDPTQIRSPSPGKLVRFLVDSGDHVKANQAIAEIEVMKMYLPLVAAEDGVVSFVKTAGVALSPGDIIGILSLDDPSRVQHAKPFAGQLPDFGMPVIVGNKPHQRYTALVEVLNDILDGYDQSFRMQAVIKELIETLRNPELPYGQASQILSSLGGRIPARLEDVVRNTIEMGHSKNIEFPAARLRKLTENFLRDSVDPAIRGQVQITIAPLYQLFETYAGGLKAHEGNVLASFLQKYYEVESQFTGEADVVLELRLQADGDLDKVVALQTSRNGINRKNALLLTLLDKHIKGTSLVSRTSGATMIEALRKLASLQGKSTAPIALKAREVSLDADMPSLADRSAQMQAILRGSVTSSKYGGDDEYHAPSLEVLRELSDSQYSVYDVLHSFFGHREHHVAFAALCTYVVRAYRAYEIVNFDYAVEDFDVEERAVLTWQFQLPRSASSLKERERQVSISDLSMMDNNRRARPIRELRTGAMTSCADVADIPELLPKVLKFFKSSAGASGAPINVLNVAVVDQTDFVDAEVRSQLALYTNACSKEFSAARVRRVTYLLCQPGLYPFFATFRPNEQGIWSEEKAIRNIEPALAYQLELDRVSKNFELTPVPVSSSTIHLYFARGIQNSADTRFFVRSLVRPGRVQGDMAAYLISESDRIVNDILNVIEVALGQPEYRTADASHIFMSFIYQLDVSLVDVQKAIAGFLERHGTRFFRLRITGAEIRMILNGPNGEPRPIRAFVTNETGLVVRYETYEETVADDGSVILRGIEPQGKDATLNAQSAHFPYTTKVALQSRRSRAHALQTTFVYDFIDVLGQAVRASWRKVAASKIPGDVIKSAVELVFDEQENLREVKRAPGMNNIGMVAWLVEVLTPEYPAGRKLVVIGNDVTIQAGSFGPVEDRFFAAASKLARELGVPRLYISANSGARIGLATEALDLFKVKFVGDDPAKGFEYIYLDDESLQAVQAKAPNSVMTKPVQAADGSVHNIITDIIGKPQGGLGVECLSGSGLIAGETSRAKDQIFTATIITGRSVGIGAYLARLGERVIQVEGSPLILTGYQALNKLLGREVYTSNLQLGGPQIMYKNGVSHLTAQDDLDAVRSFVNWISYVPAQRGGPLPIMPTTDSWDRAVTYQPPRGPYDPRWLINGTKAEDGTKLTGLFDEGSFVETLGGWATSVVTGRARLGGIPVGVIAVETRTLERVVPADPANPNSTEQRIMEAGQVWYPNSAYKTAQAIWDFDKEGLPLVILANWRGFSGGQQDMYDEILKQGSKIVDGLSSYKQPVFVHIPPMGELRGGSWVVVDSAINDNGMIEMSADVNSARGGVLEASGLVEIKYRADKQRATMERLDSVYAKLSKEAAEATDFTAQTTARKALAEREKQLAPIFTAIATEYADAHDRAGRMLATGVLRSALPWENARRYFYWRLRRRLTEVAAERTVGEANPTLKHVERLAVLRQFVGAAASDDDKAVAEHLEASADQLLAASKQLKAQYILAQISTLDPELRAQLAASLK

Consider `N#Cc1c(C(F)(F)F)cc(-c2cccs2)nc1SC(C(=O)O)c1ccccc1` (racemic) [Formula Ia-ii, 2-((3-cyano-6-(thiophen-2-yl)-4-(trifluoromethyl)pyridin-2-yl)thio)-2-phenylacetic acid], for which the IC50 in experiment [1] (Table 1B, racemate vs single enantiomers, read-out: ACCase Inhibitory Activity of Racemic Mixtures and Single Enantiomers IC50) worked out at 2020 nM. Moreover, in the experiment with Saccharomyces cerevisiae, the inhibition at 3.7 µM was determined as 7%, the inhibition at 11.1 µM is 0%, the inhibition at 33.3 µM is 12% and the inhibition at 100 µM was 51%.
Turning to `COc1ccc(-c2cc(-c3cccs3)nc(SC(C(=O)O)c3ccccc3)c2C#N)cc1` (centres unmarked) [Formula Ia-v, 2-((3-cyano-4-(4-methoxyphenyl)-6-(thiophen-2-yl)pyridin-2-yl)thio)-2-phenylacetic acid], the IC50 in experiment [1] (setting [3]) is 119 nM. In experiment [2], the inhibition at 2 ppm came out at 0%, the inhibition at 10 ppm stood at 32% and the inhibition at 50 ppm was 79%. Besides, in the experiment with Diplodia maydis, the inhibition at 2 ppm was 0%, the inhibition at 10 ppm was 61% and the inhibition at 50 ppm was 52%.
Turning to `N#Cc1c(-c2ccccc2)cc(-c2cccs2)nc1SC(C(=O)O)c1ccccc1` (centres unmarked) [Formula Ia-iv, 2-((3-cyano-4-phenyl-6-(thiophen-2-yl)pyridin-2-yl)thio)-2-phenylacetic acid], in experiment [1] (setting [3]), the concentration for half-maximal inhibition (IC50) was 492 nM. In experiment [2], the inhibition at 2 ppm is 5%, the inhibition at 10 ppm stood at 41% and the inhibition at 50 ppm was found to be 76%. Further, in the experiment on Phytophthora capsici, the inhibition at 2 ppm was 0%, the inhibition at 10 ppm was found to be 11% and the inhibition at 50 ppm worked out at 90%.
Regarding `N#Cc1c(C(F)(F)F)cc(-c2ccco2)nc1SC(C(=O)O)c1ccccc1` (centres unmarked) [Formula Ia-xi, 2-((3-cyano-6-(furan-2-yl)-4-(trifluoromethyl)pyridin-2-yl)thio)-2-phenylacetic acid], in experiment [1] (setting [3]), the IC50 was 5430 nM. For the same molecule, in the experiment with Diplodia maydis, the inhibition at 2 ppm turned out to be 38%, the inhibition at 10 ppm was found to be 54% and the inhibition at 50 ppm stood at 82%.
Regarding `N#Cc1c(-c2ccc(Cl)cc2)cc(-c2cccs2)nc1SC(C(=O)O)c1ccccc1` (centres unmarked) [Formula Ia-i, 2-((4-(4-chlorophenyl)-3-cyano-6-(thiophen-2-yl)pyridin-2-yl)thio)-2-phenylacetic acid], the IC50 in experiment [1] (setting [3]) was found to be 370 nM. Moreover, in experiment [2], the inhibition at 2 ppm is 28%, the inhibition at 10 ppm amounted to 72% and the inhibition at 50 ppm worked out at 92%. Further, in the experiment on Diplodia maydis, the inhibition at 2 ppm came out at 3%, the inhibition at 10 ppm worked out at 57% and the inhibition at 50 ppm turned out to be 65%.
For `N#Cc1c(SC(C(=O)O)c2ccccc2)nc(-c2cccs2)c2c1CCCC2` (centres unmarked) [Formula Ia-vii, 2-((4-cyano-1-(thiophen-2-yl)-5,6,7,8-tetrahydroisoquinolin-3-yl)thio)-2-phenylacetic acid], the IC50 in experiment [1] (setting [3]) was found to be 3800 nM. In experiment [2], the inhibition at 2 ppm was 11%, the inhibition at 10 ppm was determined as 19% and the inhibition at 50 ppm came to 71%. In the experiment with Diplodia maydis, the inhibition at 2 ppm was found to be 11%, the inhibition at 10 ppm was found to be 46% and the inhibition at 50 ppm stood at 64%. In addition, in the experiment on Phytophthora capsici, the inhibition at 2 ppm was 0%, the inhibition at 10 ppm was found to be 9% and the inhibition at 50 ppm was determined as 100%.
With `COc1ccc(-c2cc(C(F)(F)F)c(C#N)c(SC(C(=O)O)c3ccccc3)n2)c(OC)c1` (centres unmarked) [Formula Ia-viii, 2-((3-cyano-6-(2,4-dimethoxyphenyl)-4-(trifluoromethyl)pyridin-2-yl)thio)-2-phenylacetic acid], the IC50 in experiment [1] (setting [3]) was found to be 1720 nM. In the experiment with Saccharomyces cerevisiae, the inhibition at 3.7 µM came to 6%, the inhibition at 11.1 µM came out at 23%, the inhibition at 33.3 µM was 62% and the inhibition at 100 µM is 100%.
In the case of `N#Cc1c(SC(C(=O)O)c2ccccc2)nc2c(c1-c1cccs1)CCCC2` (centres unmarked) [Formula Ia-xiii, 2-((3-cyano-4-(thiophen-2-yl)-5,6,7,8-tetrahydroquinolin-2-yl)thio)-2-phenylacetic acid], the concentration for half-maximal inhibition (IC50) in experiment [1] (setting [3]) stood at 274 nM. Besides, in the experiment with Diplodia maydis, the inhibition at 2 ppm was 20%, the inhibition at 10 ppm amounted to 13% and the inhibition at 50 ppm turned out to be 40%.
In the case of `COc1ccc(-c2cc(C(F)(F)F)c(C#N)c(SC(C(=O)O)c3ccccc3)n2)cc1OC` (centres unmarked) [Formula Ia-ix, 2-((3-cyano-6-(3,4-dimethoxyphenyl)-4-(trifluoromethyl)pyridin-2-yl)thio)-2-phenylacetic acid], the IC50 in experiment [1] (setting [3]) is 1600 nM. Moreover, the inhibition at 2 ppm is 5% in experiment [2], 32% in the experiment on Diplodia maydis and 10% in the experiment on Phytophthora capsici. For the same molecule, the results for the inhibition at 10 ppm (in experiment [2]; with Diplodia maydis; with Phytophthora capsici) were 17%, 37% and 39%, respectively. Moreover, the inhibition at 50 ppm turned out to be 72% in experiment [2], 70% in the experiment on Diplodia maydis and 34% in the experiment with Phytophthora capsici.

Usually IC50 stands for the concentration that inhibits the measured activity by half. One may read the inhibition as the share of the control response that was lost under treatment.
